Assay results from patent US20230064976A1, “AMORPHOUS FORM OR CRYSTALLINE FORM OF 2-INDOLINOLINOLOLYLSPIRONONE COMPOUNDS OR THEIR SALTS, SOLVENT COMPLEXES” (ASCENTAGE PHARMA (SUZHOU) CO., LTD., priority 2020, published 2023).
One block for each compound: values may come before it.

Columns and labels:
Format in all cases: physicochemical
[1] = Stability test of crystalline form XI (different temperature and humidity)
From the text: Place the sample of Form XI under high temperature, high humidity 75% RH conditions, and sample on Day 0, Day 5, Day 10 and Day 30 to investigate its content, related substances and crystal forms.

[2] = Dynamic Vapour Sorption (DVS) hygroscopicity test; details: for Weight Gain (80% RH): DVS
Protocol: The instruments used and their parameters are as follows: XPRD—X-ray powder diffraction, using Bruker D8 Advance Diffractometer to characterize solids. Copper target wavelength is 1.54 Å Kα radiation (40 kV, 40 mA), 0-20 goniometer, Mo monochromator, Lynxeye detector, detection angle is 3-40° 2θ/3-30° 20, step size It is 0.02° 20, the speed is 0.2 s/step, and the detection sample weight is >2 mg. TGA—Thermo gravimetric analysis, using TA Instruments Q500 TGA, the detection sample size is 1 mg-10 mg, the common detection method is Hi-Res sensitivity 3.0, Ramp 10.00° C./min, res 5.0 to 150.00° C., Ramp 10.00° C./min to 350° C. DSC—differential scanning calorimetry analysis, using TA Instruments Q200 DSC, the detection sample weight is 0.5 mg-5 mg, the gas flow rate is 40 mL/min, the common detection method is Equilibrate, 20° C., Ramp 10° C./min to 280° C.-300° C. DVS—Dynamic Vapour Sorption analysis, the detection sample weight is 1 mg-10 mg, the gas flow rate is 10 mL/min, the common detection method is equilibrium at 25° C., humidity 0%, isothermal for 90 minutes, if the weight percentage is less than 0.0100, the next isothermal test is aborted for 15.00 minutes, and the 10% step humidity is 80.00% every 90 minutes. If the weight percentage is less than 0.0100, the next isothermal test is aborted for 15.00 minutes, and the step humidity is 10% to 0.00% every 90 minutes. For the above identification and characterization results of XPRD, TGA, DSC, and DVS, please refer to FIG. 1-82, Table 1-15 and related description.
Take about 10 mg of crystalline form XI sample for Dynamic Vapour Sorption (DVS) test. The conclusions are described in Table 23 below.
About 10 mg of amorphous form XVI sample was taken for dynamic moisture adsorption (DVS) test. The conclusions are described in Table 25 below:
Dynamic water sorption (DVS) was performed on hydrobromide and maleate crystalline samples.

[3] = Stability testing of amorphous form XVI (60° C., 90% RH, light)
Protocol: The amorphous XVI sample was placed at 60° C., with high humidity 90% RH, under the light condition (light condition: 4500 Lux), and sampled on Day 0/5/10 to investigate its content, related substances and crystal form.

[4] = Competitive experiment of crystalline form X and crystalline form XI (suspension stirring, XRD); details: acetone/n-heptane, dichloromethane/n-heptane, acetone/water 1/3 v:v; room temperature 1-3 days
From the text: Take an equal amount of crystalline form X and crystalline form XI samples, mix them uniformly, and sample for XRD detection.

[5] = Stability test for salt form screening (maleate crystalline form V; HPLC, XRD)
Protocol: Weigh 30 mg of compound (maleate crystalline form V) into a 8 mL glass bottle, then place it at high temperature (60° C., open), high humidity (room temperature/75% RH, open) and light (room temperature, white light: 6980 lux, ultraviolet 282 μW/cm2), take samples on Day 5/10/30 respectively for testing (HPLC, XRD).

[6] = Day 5—light condition (4500 Lux)
[7] = Day 10—light condition (4500 Lux)

content and purity (summary) ([1]; 5 days, 10 days and 30 days, high temperature and high humidity): almost unchanged
Total impurity content (%) ([1]; Day 0): 0.31%
XPRD ([1]; Day 0): Form XI
content (%) ([1]; Day 0): 99.5%
Total impurity content (%) ([1]; Day 5—40° C.): 0.21%
content (%) ([1]; Day 5—40° C.): 99.6%
Total impurity content (%) ([1]; Day 5—60° C.): 0.15%
content (%) ([1]; Day 5—60° C.): 99.1%
Total impurity content (%) ([1]; Day 5—75% RH): 0.16%
content (%) ([1]; Day 5—75% RH): 99.1%
Total impurity content (%) ([1]; Day 10—40° C.): 0.25%
XPRD ([1]; Day 10—40° C.): Form XI
content (%) ([1]; Day 10—40° C.): 99.1%
Total impurity content (%) ([1]; Day 10—60° C.): 0.25%
XPRD ([1]; Day 10—60° C.): Form XI
content (%) ([1]; Day 10—60° C.): 100.1%
Total impurity content (%) ([1]; Day 10—75% RH): 0.24%
XPRD ([1]; Day 10—75% RH): Form XI
content (%) ([1]; Day 10—75% RH): 99.3%
Total impurity content (%) ([1]; Day 30—40° C.): 0.33%
XPRD ([1]; Day 30—40° C.): Form XI
content (%) ([1]; Day 30—40° C.): 98.9%
Total impurity content (%) ([1]; Day 30—75% RH): 0.32%
XPRD ([1]; Day 30—75% RH): Form XI
content (%) ([1]; Day 30—75% RH): 100.5%
XRPD before and after DVS [2]: Unchanged
water absorption during storage (conclusion from DVS) [2]: not easy to absorb water
DVS weight change of 0% RH-80% RH [2]: 0.17±0.05%
Weight Gain (80% RH) [2]: 0.01%
Compound: CCN1C(C(=O)NC23CCC(C(=O)O)(CC2)CC3)C(c2cccc(Cl)c2F)C2(C(=O)Nc3cc(Cl)ccc32)C12CCCCC2.O (stereo not shown) [Form XI]

XRPD before and after DVS [2]: Unchanged
water absorption during storage (conclusion from DVS) [2]: not easy to absorb water
DVS weight change of 0% RH-80% RH [2]: 2.5±0.5%
Weight Gain (80% RH) [2]: 2.32%
Total impurity content (%) ([3]; Day 0): 0.38%
XPRD ([3]; Day 0): Amorphous
content (%) ([3]; Day 0): 99.4%
Total impurity content (%) ([3]; Day 5—60° C.): 0.48%
content (%) ([3]; Day 5—60° C.): 101.7%
Total impurity content (%) ([3]; Day 5—90% RH): 0.40%
content (%) ([3]; Day 5—90% RH): 102.1%
Total impurity content (%) [3, 6]: 0.44%
content (%) [3, 6]: 102.4%
Total impurity content (%) ([3]; Day 10—60° C.): 0.54%
XPRD ([3]; Day 10—60° C.): Amorphous
content (%) ([3]; Day 10—60° C.): 99.0%
Total impurity content (%) ([3]; Day 10—90% RH): 0.40%
XPRD ([3]; Day 10—90% RH): Amorphous
content (%) ([3]; Day 10—90% RH): 101.1%
Total impurity content (%) [3, 7]: 0.57%
XPRD [3, 7]: Amorphous
content (%) [3, 7]: 100.4%
Compound: CCN1C(C(=O)NC23CCC(C(=O)O)(CC2)CC3)C(c2cccc(Cl)c2F)C2(C(=O)Nc3cc(Cl)ccc32)C12CCCCC2 (stereo not shown) [Form XVI]

DVS water absorption 0% RH-60% RH ([2]; 0% RH-60% RH): < 0.1%
DVS weight change 60% RH-80% RH ([2]; 60% RH-80% RH): 1.6±0.2%
form after stirring mixed sample of form X and form XI (XRD) [4]: converted to crystalline form XI
Compound: CCN1C(C(=O)NC23CCC(C(=O)O)(CC2)CC3)C(c2cccc(Cl)c2F)C2(C(=O)Nc3cc(Cl)ccc32)C12CCCCC2 (stereo not shown) [crystalline form X]

Weight Gain (80% RH) [2]: 5.1% (hygroscopic)
Compound: Br.CCN1C(C(=O)NC23CCC(C(=O)O)(CC2)CC3)C(c2cccc(Cl)c2F)C2(C(=O)Nc3cc(Cl)ccc32)C12CCCCC2 (stereo not shown) [hydrobromide crystalline form VI]

XRPD before and after DVS [2]: Unchanged
Weight Gain (80% RH) [2]: 1.2% (slightly
Total impurity content (%) ([5]; Day 0): 1.20%
XPRD ([5]; Day 0): Form V
content and purity (summary) ([5]; Day 5/10/30, high temperature, high humidity and light): almost unchanged
Total impurity content (%) ([5]; Day 5—60° C.): 1.20%
XPRD ([5]; Day 5—60° C.): Form V
Total impurity content (%) ([5]; Day 5—75% RH): 1.10%
XPRD ([5]; Day 5—75% RH): Form V
Total impurity content (%) ([5]; Day 5—light): 1.10%
XPRD ([5]; Day 5—light): Form V
Total impurity content (%) ([5]; Day 10—60° C.): 1.20%
XPRD ([5]; Day 10—60° C.): Form V
Total impurity content (%) ([5]; Day 10—75% RH): 1.20%
XPRD ([5]; Day 10—75% RH): Form V
Total impurity content (%) ([5]; Day 10—light): 1.10%
XPRD ([5]; Day 10—light): Form V
Total impurity content (%) ([5]; Day 30—60° C.): 1.20%
XPRD ([5]; Day 30—60° C.): Form V
Total impurity content (%) ([5]; Day 30—75% RH): 1.10%
XPRD ([5]; Day 30—75% RH): Form V
Compound: CCN1C(C(=O)NC23CCC(C(=O)O)(CC2)CC3)C(c2cccc(Cl)c2F)C2(C(=O)Nc3cc(Cl)ccc32)C12CCCCC2.O=C(O)C=CC(=O)O (stereo not shown) [maleate crystalline form V]
